In US10934277B2, “Enantiomerically purified GPER agonist for use in treating disease states and conditions” (Linnaeus Therapeutics, Inc., priority 2018, dated 2021):
Several values for one entry are separate records, joined by “and”; a condition that tells them apart may be missing. Identical values can stand only once.

What was measured:
ADRA2A = biological target: T1, ADRA2A (Homo sapiens, UniProt P08913); assay: Off target selectivity assay, ADRA2A; assay type: cell-based; details: dose response, concentrations up to 10 μM; read-out: IC50 or EC50 on ADRA2A
T1 sequence (P08913 1-465): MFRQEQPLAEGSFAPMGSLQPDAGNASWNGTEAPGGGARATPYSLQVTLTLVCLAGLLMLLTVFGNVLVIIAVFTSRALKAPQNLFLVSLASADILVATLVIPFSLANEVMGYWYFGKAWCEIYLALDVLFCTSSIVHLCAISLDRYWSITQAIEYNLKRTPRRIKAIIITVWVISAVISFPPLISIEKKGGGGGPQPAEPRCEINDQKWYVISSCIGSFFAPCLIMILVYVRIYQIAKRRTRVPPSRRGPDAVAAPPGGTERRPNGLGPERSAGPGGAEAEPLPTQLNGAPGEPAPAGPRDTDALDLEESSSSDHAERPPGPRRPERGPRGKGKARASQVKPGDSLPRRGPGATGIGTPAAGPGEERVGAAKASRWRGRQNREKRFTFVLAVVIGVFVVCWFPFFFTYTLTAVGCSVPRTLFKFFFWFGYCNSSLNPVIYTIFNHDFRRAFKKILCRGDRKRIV
Description: (§1) Final assay vehicle concentration was 1%.
(§2) For Gi coupled GPCRs, EC80 forskolin was included.
(§3) DMSO concentration for all readouts is ≤0.2%.
(§4) Probenicid was prepared fresh. Cells were loaded with dye prior to testing.

CYP2C9 = CYP2C9 (Homo sapiens, UniProt P11712); assay: in vitro; assay type: in vitro ADME
Sequence of CYP2C9 (P11712 whole entry, species assumed): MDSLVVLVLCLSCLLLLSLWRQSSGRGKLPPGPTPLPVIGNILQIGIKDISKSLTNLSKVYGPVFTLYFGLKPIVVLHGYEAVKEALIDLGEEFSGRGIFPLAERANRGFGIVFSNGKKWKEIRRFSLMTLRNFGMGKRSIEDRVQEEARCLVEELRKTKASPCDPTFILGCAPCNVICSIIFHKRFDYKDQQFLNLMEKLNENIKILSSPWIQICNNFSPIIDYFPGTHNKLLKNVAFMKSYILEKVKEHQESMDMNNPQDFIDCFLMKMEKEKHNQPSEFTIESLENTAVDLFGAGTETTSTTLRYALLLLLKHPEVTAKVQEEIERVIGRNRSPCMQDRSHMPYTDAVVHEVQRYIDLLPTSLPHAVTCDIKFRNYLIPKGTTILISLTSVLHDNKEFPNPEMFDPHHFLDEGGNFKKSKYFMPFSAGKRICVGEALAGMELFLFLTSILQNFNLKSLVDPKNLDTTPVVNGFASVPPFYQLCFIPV
Description: (§5) Cytochrome P450 Inhibition (HPLC-UV/VIS and HPLC-MS/MS detection)
(§6) Peak areas corresponding to the metabolite of each substrate were recorded. The percent of control activity was then calculated by comparing the peak area obtained in the presence of the test compound to that obtained in the absence of the test compound. Subsequently, the percent inhibition was calculated by subtracting the percent control activity from 100 for each compound. IC50 values (concentration causing a half-maximal inhibition of control values) were determined by non-linear regression analysis of the concentration-response curve using Hill equation curve fitting.

OCT2 = biological target: T2, OCT2 (Homo sapiens, UniProt O15244); assay: Drug transporter fluorometric inhibition, OCT2; assay type: in vitro ADME
T2 sequence (O15244 1-555): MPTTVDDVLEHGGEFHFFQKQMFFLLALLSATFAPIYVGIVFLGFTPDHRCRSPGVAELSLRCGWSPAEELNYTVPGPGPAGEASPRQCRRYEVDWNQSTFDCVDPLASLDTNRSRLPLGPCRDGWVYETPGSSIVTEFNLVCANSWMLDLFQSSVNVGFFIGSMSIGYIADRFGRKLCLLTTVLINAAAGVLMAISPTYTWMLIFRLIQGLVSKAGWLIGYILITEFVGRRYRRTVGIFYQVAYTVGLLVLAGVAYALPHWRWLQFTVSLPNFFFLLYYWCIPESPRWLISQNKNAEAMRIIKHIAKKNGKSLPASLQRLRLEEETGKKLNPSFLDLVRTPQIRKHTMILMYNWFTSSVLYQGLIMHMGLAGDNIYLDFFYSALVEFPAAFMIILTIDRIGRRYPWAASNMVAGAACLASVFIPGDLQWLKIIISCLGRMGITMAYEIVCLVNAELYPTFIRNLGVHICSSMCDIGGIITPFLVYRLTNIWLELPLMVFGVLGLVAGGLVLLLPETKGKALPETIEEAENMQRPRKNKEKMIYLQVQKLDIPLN
Description: Drug transporter (fluorometric inhibition)
The percent of control was calculated using the following equation. The percent of inhibition was calculated by subtracting the percent of control from 100. The IC50 value (concentration causing a half-maximal inhibition of the control value) was determined by non-linear regression analysis of the concentration-response curve using the Hill equation.
Compound is the individual reading in the presence of the test compound. T1 is the mean reading in the absence of the test compound. Background (for P-gp and BCRP) is the mean reading in the presence of the highest effective concentration of the reference inhibitor. Background (for OATP1B1, OATP1B3, OAT1, OAT3, and OCT2) is the mean reading in the absence of both the test compound and the substrate.

OPRD1 = OPRD1 (Homo sapiens, UniProt P41143); assay: Off target selectivity assay, OPRD1; assay type: cell-based; details: dose response, concentrations up to 10 μM; read-out: IC50 or EC50 on OPRD1
Sequence of OPRD1 (P41143 whole entry): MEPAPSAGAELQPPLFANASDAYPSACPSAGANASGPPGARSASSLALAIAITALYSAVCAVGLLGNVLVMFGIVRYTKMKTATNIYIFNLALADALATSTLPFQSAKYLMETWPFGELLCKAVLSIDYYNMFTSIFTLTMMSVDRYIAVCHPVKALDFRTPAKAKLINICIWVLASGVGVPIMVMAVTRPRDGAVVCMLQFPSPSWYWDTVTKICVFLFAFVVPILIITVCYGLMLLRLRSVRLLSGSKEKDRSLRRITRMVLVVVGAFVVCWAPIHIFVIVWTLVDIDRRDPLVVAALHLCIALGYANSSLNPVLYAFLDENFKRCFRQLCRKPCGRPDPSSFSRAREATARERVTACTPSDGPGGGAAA
Description: as §1, §2, §3, §4

pKa titration test = assay type: physicochemical; details: range of 3-11
CYP2C8 = biological target: T3, CYP2C8 (Homo sapiens, UniProt P10632); assay: in vitro; assay type: in vitro ADME
T3 sequence (P10632 1-490): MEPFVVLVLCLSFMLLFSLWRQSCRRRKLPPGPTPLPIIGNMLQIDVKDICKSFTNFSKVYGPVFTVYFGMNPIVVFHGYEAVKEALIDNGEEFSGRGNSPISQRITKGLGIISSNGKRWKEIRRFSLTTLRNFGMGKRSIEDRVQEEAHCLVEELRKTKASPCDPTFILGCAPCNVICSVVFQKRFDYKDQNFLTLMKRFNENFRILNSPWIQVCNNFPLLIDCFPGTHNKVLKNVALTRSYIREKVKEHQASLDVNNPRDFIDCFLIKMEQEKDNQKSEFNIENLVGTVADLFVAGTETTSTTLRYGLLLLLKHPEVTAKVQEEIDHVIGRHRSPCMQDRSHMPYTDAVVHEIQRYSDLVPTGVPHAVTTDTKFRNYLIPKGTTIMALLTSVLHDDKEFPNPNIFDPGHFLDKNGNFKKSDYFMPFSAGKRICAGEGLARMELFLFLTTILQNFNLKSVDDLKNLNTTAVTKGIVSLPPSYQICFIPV
Description: as §5, §6

CYP2D6 = CYP2D6 (Homo sapiens, UniProt P10635); assay: in vitro; assay type: in vitro ADME
Sequence of CYP2D6 (P10635 whole entry, species assumed): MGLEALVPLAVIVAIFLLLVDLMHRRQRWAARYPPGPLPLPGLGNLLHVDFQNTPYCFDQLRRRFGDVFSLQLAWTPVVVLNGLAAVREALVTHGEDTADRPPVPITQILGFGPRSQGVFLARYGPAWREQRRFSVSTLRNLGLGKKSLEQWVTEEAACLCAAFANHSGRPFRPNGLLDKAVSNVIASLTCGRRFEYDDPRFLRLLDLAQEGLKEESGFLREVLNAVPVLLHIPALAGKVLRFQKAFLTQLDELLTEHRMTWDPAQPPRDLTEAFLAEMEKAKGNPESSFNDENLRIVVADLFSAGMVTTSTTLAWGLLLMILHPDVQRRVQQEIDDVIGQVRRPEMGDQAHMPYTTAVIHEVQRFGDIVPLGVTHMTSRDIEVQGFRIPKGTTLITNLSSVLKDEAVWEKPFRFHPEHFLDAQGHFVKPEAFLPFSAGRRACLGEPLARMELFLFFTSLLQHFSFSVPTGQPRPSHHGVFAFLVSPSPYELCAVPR
Description: as §5, §6

[1] = LogD7.4 by shake-flask method (pH 7.4 phosphate buffer / n-octanol); assay type: physicochemical; details: for Concentration in pH buffer 7.4: aqueous phase
Description: Log D7.4 was measured with the solvent systems of pH 7.4 phosphate buffer and n-octanol by shake-flask method.

[2] = Plasma concentration of SRR G-1 in rats after oral dosing (LC-MS/MS); assay type: in vivo; details: rat, individual animals (R1-R9); for Plasma Conc.: PO 10 mg/kg, listed as SRR G-1 Free Base
Description: The results are shown in Tables 22-24 for each respectively.

[3] = shake-flask, single samples #1-3

SMILES: CC(=O)c1ccc2c(c1)[C@H]1C=CC[C@H]1[C@@H](c1cc3c(cc1Br)OCO3)N2 [RSS G-1, 1-((3aR,4S,9bS)-4-(6-bromobenzo[d][1,3]dioxol-5-yl)-3a,4,5,9b-tetrahydro-3H-cyclopenta[c]quinolin-8-yl)ethan-1-one]
- IC50 (ADRA2A): 2070 nM
- inhibition at 10 µM (CYP2C9): 50.4%
- inhibition at 10 µM (OCT2): 53.2%

SMILES: CC(=O)c1ccc2c(c1)[C@@H]1C=CC[C@@H]1[C@H](c1cc3c(cc1Br)OCO3)N2 (single isomer, unassigned) [SRR G-1]
- IC50 (OPRD1): 870 nM
- pKa by titration (pKa titration test): no pKa value was observed
- inhibition at 10 µM (CYP2C8): 66.7%
- inhibition at 10 µM (CYP2D6): 74.3%
- LogP* ([1]; LogP = LogD(pH) + Log [1 + 10^(pKa −pH)]): >3.22
- logP ([1]; n-octanol / pH 7.4 phosphate buffer, pH 7.4, LogP = LogD(pH) + Log [1 + 10^(pKa −pH)]): > 3.22
- logD ([1]; n-octanol / pH 7.4 phosphate buffer, shake-flask, pH 7.4 phosphate buffer and n-octanol): > 3.22
- Concentration in pH buffer 7.4 [1, 3]: <0.82 μg/mL
- Concentration in pH buffer 7.4 ([1]; shake-flask, single samples #1-3, listed as SRR G-1 freebase): < 0.82 μg/mL
- Average of LogD7.4 ([1]; shake-flask, pH 7.4 phosphate buffer and n-octanol): > 3.22
- Concentration in n-octanol [1, 3]: 1370 µg/mL and 1340 µg/mL
- LogD7.4 [1, 3]: >3.22 and >3.21
- concentration at 1 h ([2]; male, plasma, po, 10 mg/kg, time 1.00 h, read-out: Plasma Conc.): 0.00396 µg/mL
- concentration at 8 h ([2]; male, plasma, po, 10 mg/kg, time 8.00 h, read-out: Plasma Conc.): 0.00172 µg/mL
- concentration at 24 h ([2]; male, plasma, po, 10 mg/kg, time 24.0 h, LLOQ 0.100 ng/mL, read-out: Plasma Conc.): 0.000127 µg/mL
- Plasma Conc. ([2]; time 0.500 h): 1.91 ng/mL and 2.60 ng/mL and 1.23 ng/mL
- Plasma Conc. ([2]; time 1.00 h): 6.03 ng/mL and 3.15 ng/mL
- Plasma Conc. ([2]; time 2.00 h): 2.96 ng/mL and 7.56 ng/mL and 2.71 ng/mL
- Plasma Conc. ([2]; time 4.00 h): 2.18 ng/mL and 4.67 ng/mL and 1.39 ng/mL
- Plasma Conc. ([2]; time 8.00 h): 1.58 ng/mL and 1.47 ng/mL
- Plasma Conc. ([2]; time 24.0 h, LLOQ 0.100 ng/mL): 0.169 ng/mL and BQL
